Legend:
[1] = biological target: human recombinant Aurora A (Homo sapiens (Human), UniProt O14965); assay: Aurora A Kinase Biochemical Assay (ADP-Glo); conditions: ratio of Aurora A IC50 to PLK4 IC50 (selectivity)
Protocol: (§1) Activity of human recombinant Aurora A (ThermoFisher, cat #PR5935A) was measured by quantification of adenosine diphosphate (ADP) using the ADP-Glo Kinase Assay Kit (Promega, cat #V9102). […] 5 µL of 5.0 nM Aurora A in assay buffer (50 mM HEPES, pH 7.5, 0.01% Brij-35, 0.01% BSA, 10 mM MgCl2, 1 mM EGTA, 1 mM DTT) was added to the plates. Test compounds and Aurora A were incubated for 15 minutes at room temperature (RT). […] Reactions were stopped and the remaining ATP depleted by adding 10uL of ADP-Glo reagent (Promega, cat#V912B) and incubating for 40 minutes at RT. The simultaneous conversion of the remaining ADP to ATP and measurement of the newly synthesized ATP was achieved by addition of 20 µL Kinase Detection reagent (Promega, cat #V914B), incubation for 30 min at RT, and luminescence detection using the EnVision plate reader (PerkinElmer). […] The IC50 values reported in Table 2 were determined using four parameter non-linear regression curve fit.

[2] = biological target: human recombinant Aurora B (Homo sapiens (Human), UniProt Q96GD4); assay: Aurora B Kinase Biochemical Assay (ADP-Glo); conditions: ratio of Aurora B IC50 to PLK4 IC50 (selectivity)
Protocol: as §1, with “Aurora B” for “Aurora A”, “cat #PR9210B)” for “cat #PR5935A)”, “of 20” for “of 5.0”

human recombinant PLK4 = human recombinant PLK4 (Homo sapiens (Human), UniProt O00444); assay: PLK4 Biochemical Assay (ADP-Glo); conditions: 0.5 nM PLK4, 8.0 µM ATP, 4.7 µM MBP, 6 hours at RT
Protocol: as §1, with “recombinant PLK4” for “recombinant Aurora A”, “cat #PV6396)” for “cat #PR5935A)”, “of 1.0” for “of 5.0”, “nM PLK4 protein” for “nM Aurora A”, “and PLK4” for “and Aurora A”, “adding 10 µL” for “adding 10uL”

human recombinant PLK4, sequence (O00444 whole entry): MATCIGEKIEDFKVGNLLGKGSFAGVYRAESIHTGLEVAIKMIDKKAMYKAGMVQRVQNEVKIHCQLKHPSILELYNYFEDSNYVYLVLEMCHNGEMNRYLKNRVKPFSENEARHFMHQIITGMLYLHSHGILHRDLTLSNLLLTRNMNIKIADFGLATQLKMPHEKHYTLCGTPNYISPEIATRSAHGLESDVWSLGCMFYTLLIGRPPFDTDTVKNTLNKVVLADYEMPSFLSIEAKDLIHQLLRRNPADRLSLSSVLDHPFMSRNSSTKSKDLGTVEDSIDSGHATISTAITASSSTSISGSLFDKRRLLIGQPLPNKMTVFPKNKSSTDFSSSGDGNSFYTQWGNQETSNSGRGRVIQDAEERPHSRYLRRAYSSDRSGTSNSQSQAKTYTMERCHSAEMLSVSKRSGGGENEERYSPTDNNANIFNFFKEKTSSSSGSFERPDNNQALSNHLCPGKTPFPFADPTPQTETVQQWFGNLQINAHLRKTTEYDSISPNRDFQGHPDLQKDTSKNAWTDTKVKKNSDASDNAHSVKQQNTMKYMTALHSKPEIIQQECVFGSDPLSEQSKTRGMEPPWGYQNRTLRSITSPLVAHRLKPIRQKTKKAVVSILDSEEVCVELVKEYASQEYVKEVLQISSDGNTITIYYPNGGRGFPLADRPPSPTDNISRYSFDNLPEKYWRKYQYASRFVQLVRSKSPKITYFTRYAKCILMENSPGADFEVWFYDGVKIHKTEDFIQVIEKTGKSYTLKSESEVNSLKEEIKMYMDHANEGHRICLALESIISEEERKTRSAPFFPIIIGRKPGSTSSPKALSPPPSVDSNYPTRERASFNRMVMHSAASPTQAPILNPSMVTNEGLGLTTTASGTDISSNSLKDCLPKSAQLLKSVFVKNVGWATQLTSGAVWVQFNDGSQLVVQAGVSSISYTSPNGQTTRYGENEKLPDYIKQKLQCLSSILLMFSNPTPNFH
human recombinant Aurora B, sequence (Q96GD4 whole entry): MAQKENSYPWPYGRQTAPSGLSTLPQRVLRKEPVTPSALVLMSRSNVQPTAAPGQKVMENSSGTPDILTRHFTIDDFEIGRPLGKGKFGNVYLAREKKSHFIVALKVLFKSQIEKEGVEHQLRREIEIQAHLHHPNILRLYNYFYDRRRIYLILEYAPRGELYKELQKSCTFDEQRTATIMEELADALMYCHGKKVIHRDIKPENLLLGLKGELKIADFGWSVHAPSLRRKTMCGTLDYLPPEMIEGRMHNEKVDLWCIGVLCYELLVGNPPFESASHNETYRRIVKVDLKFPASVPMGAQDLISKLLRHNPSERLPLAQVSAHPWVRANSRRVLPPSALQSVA
human recombinant Aurora A, sequence (O14965 whole entry): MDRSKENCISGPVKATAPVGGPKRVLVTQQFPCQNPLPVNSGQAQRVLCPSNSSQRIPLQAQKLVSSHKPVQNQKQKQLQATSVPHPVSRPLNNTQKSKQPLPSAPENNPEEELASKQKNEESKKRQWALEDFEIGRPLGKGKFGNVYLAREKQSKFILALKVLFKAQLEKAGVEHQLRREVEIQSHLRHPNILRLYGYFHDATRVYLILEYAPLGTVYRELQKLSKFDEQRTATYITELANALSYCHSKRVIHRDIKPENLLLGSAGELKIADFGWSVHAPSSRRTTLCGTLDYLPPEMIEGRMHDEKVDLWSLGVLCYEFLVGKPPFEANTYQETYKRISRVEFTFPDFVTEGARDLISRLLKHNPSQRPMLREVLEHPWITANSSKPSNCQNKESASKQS

Row | [Aurora A IC50 (nM)]/[PLK4 IC50 (nM)] [1] | [Aurora B IC50 (nM)]/[PLK4 IC50 (nM)] [2] | IC50 (human recombinant PLK4) | Compound
1 | 825.7199 | 492.8831 | 6.04 nM | COc1ccc2c(c1)[C@]1(C[C@H]1c1ccc3c(Nc4cc(C(C)O)cnc4OC)n[nH]c3c1)C(=O)N2 (mixture of isomers) [Example 271, (1R,2S)-2-(3-{[5-(1-hydroxyethyl)-2-methoxypyridin-3-yl]amino}-1H-indazol-6-yl)-5′-methoxyspiro[cyclopropane-1,3′-indol]-2′(1′H)-one]
2 | – | – | 3.5 nM | COc1ccc2c(c1)[C@]1(C[C@H]1c1ccc3c(Nc4ncncc4OC)n[nH]c3c1)C(=O)N2 (racemic) [Example 1, racemic-5′-Methoxy-2-{3-[(5-methoxypyrimidin-4-yl)amino]-1H-indazol-6-yl}spiro[cyclopropane-1,3′-indol]-2′(1′H)-one]
3 | 318.03 | 15.6544 | 29.3 nM | COc1ccc2c(c1)[C@]1(C[C@H]1c1ccc3c(Nc4ncncc4C)n[nH]c3c1)C(=O)N2 (racemic) [Example 2, racemic-5′-Methoxy-2-{3-[(5-methylpyrimidin-4-yl)amino]-1H-indazol-6-yl)spiro[cydopropane-1,3′-indol]-2′(1′H)-one]
4 | – | – | 9.95 nM | COc1ccc2c(c1)[C@]1(C[C@H]1c1ccc3c(Nc4ncncc4Cl)n[nH]c3c1)C(=O)N2 (racemic) [Example 3, racemic-2-{3-[(5-Chloropyrimidin-4-yl)amino]-1H-indazol-6-yl}-5′-methoxyspiro[cydopropane-13′-indol]-2′(1′H)-one]
5 | 893.3126 | 19.96 | 3.21 nM | COc1ccc2c(c1)[C@]1(C[C@H]1c1ccc3c(Nc4nccc5c4OC[C@H]5CO)n[nH]c3c1)C(=O)N2 (single isomer, unassigned) [Example 34]
6 | 906.0197 | 523.3415 | 3.26 nM | COc1ccc2c(c1)[C@]1(C[C@H]1c1ccc3c(Nc4nc(C5CCOC5)ncc4OC)n[nH]c3c1)C(=O)N2 (single isomer, unassigned) [Example 200]
7 | 531.9935 | 218.4107 | 8.66 nM | COc1ccc2c(c1)[C@]1(C[C@H]1c1ccc3c(Nc4nc(C)nc5c4C(C)SC5)n[nH]c3c1)C(=O)N2 (single isomer, unassigned) [Example 211]
8 | – | – | 2.08 nM | COc1ccc2c(c1)[C@]1(C[C@H]1c1ccc3c(Nc4cccc5c4OCC5O)n[nH]c3c1)C(=O)N2 (stereo in doubt) [Example 27, 2-{3-[(3-hydroxy-2,3-dihydro-1-benzofuran-7-yl)amino]-1H-indazol-6-yl)-5′-methoxyspiro[cyclopropane-1,3′-indol]-2′(1′H)-one]
9 | – | – | 0.375 nM | COc1ccc2c(c1)[C@]1(C[C@H]1c1ccc3c(Nc4cccc5c4OC[C@H]5O)n[nH]c3c1)C(=O)N2 (stereo in doubt) [Example 28]
10 | 465.4867 | 11.45 | 3.96 nM | COc1ccc2c(c1)[C@]1(C[C@H]1c1ccc3c(Nc4ncncc4OC)n[nH]c3c1)C(=O)N2 [Example 4, (1R,2S)-5′-Methoxy-2-{3-[(5-methoxypyrimidin-4-yl)amino]-1H-indazol-6-yl}spiro[cyclopropane-1,3′-indol]-2′(1′H)-one]
11 | – | – | 2.18 nM | CCOc1cncnc1Nc1n[nH]c2cc([C@@H]3C[C@@]34C(=O)Nc3ccc(OC)cc34)ccc12 [Example 5, (1R,2S)-2-[3-[(5-ethoxypyrimidin-4-yl)amino]-1H-indazol-6-yl]-5′-methoxy-spiro[cyclopropane-1,3′-indoline]-2′-one]
12 | – | – | 18.2 nM | COc1ccc2c(c1)[C@]1(C[C@H]1c1ccc3c(Nc4ncncc4C4CC4)n[nH]c3c1)C(=O)N2 [Example 6, (1R,2S)-2-{3-[(5-cyclopropylpyrimidin-4-yl)amino]-1H-indazol-6-yl}-5′-methoxyspiro[cyclopropane-1,3′-indol]-2′(1′H)-one]
13 | 693.5732 | 47.27 | 4.56 nM | COc1ccc2c(c1)[C@]1(C[C@H]1c1ccc3c(Nc4ncncc4Cl)n[nH]c3c1)C(=O)N2 [Example 7]
14 | 17.61 | 32.99 | 492 nM | COc1ccc2c(c1)[C@@]1(C[C@@H]1c1ccc3c(Nc4ncncc4OC)n[nH]c3c1)C(=O)N2 [Example 8, (IS,2R)-5′-Methoxy-2-{3-[(5-methoxypyrimidin-4-yl)amino]-1H-indazol-6-yl}spiro[cyclopropane-1,3′-indol]-2′(1′H)-one]
15 | 667.5585 | 10.3 | 2.99 nM | COc1ccc2c(c1)[C@]1(C[C@H]1c1ccc3c(Nc4nccnc4OC)n[nH]c3c1)C(=O)N2 [Example 13, (1R,2S)-5′-methoxy-2-{3-[(3-methoxypyrazin-2-yl)amino)-1H-indazol-6-yl}spiro[cyclopropane-1,3′-indol]-2′(1′H)-one]
16 | 74.16 | 3.866 | 36 nM | COc1ccc2c(c1)[C@]1(C[C@H]1c1ccc3c(Nc4cc(OC)ncn4)n[nH]c3c1)C(=O)N2 [Example 14, (1R,2S)-5′-methoxy-2-{3-[(6-methoxypyrimidin-4-yl)amino]-1H-indazol-6-yl}spiro[cyclopropane-1,3′-indol]-2′(1′H)-one]
17 | – | – | 45.7 nM | COc1ccc2c(c1)[C@]1(C[C@H]1c1ccc3c(Nc4ncnc5c4CCC5)n[nH]c3c1)C(=O)N2 [Example 15, (1R,2S)-2-{3-[(6,7-dihydro-5H-cyclopenta[d]pyrimidin-4-yl)amino]-1H-indazol-6-yl}-5′-methoxyspiro[cyclopropane-1,3′-indol]-2′(1′H)-one]
18 | – | – | 22.9 nM | COc1ccc2c(c1)[C@]1(C[C@H]1c1ccc3c(Nc4cnccc4OC)n[nH]c3c1)C(=O)N2 [Example 18]
19 | – | – | 24.8 nM | COc1ccc2c(c1)[C@]1(C[C@H]1c1ccc3c(Nc4ccncc4OC)n[nH]c3c1)C(=O)N2 [Example 19, (1R,2S)-5′-methoxy-2-{3-[(3-methoxypyridin-4-yl)amino]-1H-indazol-6-yl}spiro[cyclopropane-1,3′-indol]-2′(1′H)-one]
20 | – | – | 41.7 nM | COc1ccc2c(c1)[C@]1(C[C@H]1c1ccc3c(Nc4c(C)nn(C)c4C)n[nH]c3c1)C(=O)N2 [Example 21, (1R,2S)-5′-methoxy-2-{3-[(1,3,5-trimethyl-1H-pyrazol-4-yl)amino]-1H-indazol-6-yl)spiro[cyclopropane-1,3′-indol]-2′(1′H)-one]
21 | – | – | 39.8 nM | COc1ccc2c(c1)[C@]1(C[C@H]1c1ccc3c(Nc4ncncc4C(F)(F)F)n[nH]c3c1)C(=O)N2 [Example 22, (1R,2S)-5′-methoxy-2-(3-{[5-(trifluoromethyl)pyrimidin-4-yl]amino}-1H-indazol-6-yl)spiro[cyclopropane-1,3′-indol]-2′(1′H)-one]
22 | – | – | 2.25 nM | COc1ccc2c(c1)[C@]1(C[C@H]1c1ccc3c(Nc4cccnc4OC)n[nH]c3c1)C(=O)N2 [Example 24]
23 | – | – | 3.85 nM | COc1ccc2c(c1)[C@]1(C[C@H]1c1ccc3c(Nc4cccc5ccoc45)n[nH]c3c1)C(=O)N2 [Example 26]
24 | – | – | 5.97 nM | COc1ccc2c(c1)[C@]1(C[C@H]1c1ccc3c(Nc4cccc5c4OC[C@@H]5O)n[nH]c3c1)C(=O)N2 [Example 29, (1R,2S)-2-(3-{[(3R)-3-hydroxy-2,3-dihydro-1-benzofuran-7-yl]amino)-1H-indazol-6-yl)-5′-methoxyspiro[cyclopropane-1,3′-indol]-2′(1′H)-one]

— patent publication US20230365537A1, “POLO LIKE KINASE 4 INHIBITORS” (ORIC Pharmaceuticals, Inc., priority 2021, published 2023)
